Assays:
[1] = test system: Experimental Osteoarthritis in Rabbit; test: Induction of Experimental Osteoarthritis in Rabbit (EOA in Rabbit); assay type: in vivo; conditions: conclusion drawn from the expected study
Procedure: Induction of Experimental Osteoarthritis in Rabbit (“EOA in Rabbit”)
Normal rabbits are anaesthetized and anteromedial incisions of the right knees performed. The anterior cruciate ligaments are visualized and sectioned. The wounds are closed and the animals are housed in individual cages, exercised, and fed ad libitum. Rabbits are given either vehicle (water), a combination comprising valdecoxib and gabapentin, or a combination comprising valdecoxib and 3-(1-aminomethyl-cyclohexylmethyl)-4h-[1,2,4]oxadiazol-5-one hydrochloride (10 rabbits per group). […]
The cartilage changes on the femoral condyles and tibial plateaus are graded separately under a dissecting microscope (Stereozoom, Bausch & Lomb, Rochester, N.Y.). […] The surface area changes are measured and expressed in mm^2. […]
Representative specimens of synovial membrane from the medial and lateral knee compartments are dissected from underlying tissues. […] The average is calculated and considered as a unit for the whole knee. […]
Mean values and SEM are calculated and statistical analysis is done using the Mann-Whitney U-test.

[2] = cited from earlier work

Row | Compound | treatment of cartilage damage by the Alpha-2-delta ligand [1] | tolerability ([2]; combined analysis of various clinical studies) | overall upper gastrointestinal safety profile (ulcers, perforations, obstructions and GI bleeds) ([2]; versus conventional NSAIDs such as ibuprofen, diclofenac and naproxen)
1 | Cl.NCC1(Cc2noc(=O)[nH]2)CCCCC1 [3-(1-aminomethyl-cyclohexylmethyl)-4H-[1,2,4]oxadiazol-5-one hydrochloride] | effective | – | –
2 | NCC1(CC(=O)O)CCCCC1 [gabapentin] | effective | – | –
3 | Cc1onc(-c2ccccc2)c1-c1ccc(S(N)(=O)=O)cc1 [valdecoxib, 4-(5-methyl-3-phenyl-4-isoxazolyl)-benzenesulfonamide] | – | well tolerated | significantly better
